Data as given in ChEMBL document CHEMBL1201862, “PubChem BioAssay data set” (2004).
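Step 1: Grow cells in 96-well plates. Step 2: Expose to compound for 48 hours at 5 concentrations. Step 3: Interpolate endpoints linearly; if unreached, use highest concentration. GI50 is the concentration that inhibits growth by half.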 Active and inactive are the calls of the source. Rule as the data show it: active = GI50 up to about 1.1 µM and inactive = higher.

What was measured:
Test in all cases: NCI-60 cell line screen, 48 h
NCI-H226 = tested on: NCI-H226
NCI-H522 = tested on: NCI-H522
SK-MEL-2 = tested on: SK-MEL-2
OVCAR-4 = tested on: OVCAR-4
M14 = tested on: M14
OVCAR-3 = tested on: OVCAR-3
BT-549 = tested on: BT-549
HCT-116 = tested on: HCT-116
Hs-578T = tested on: Hs-578T
OVCAR-5 = tested on: OVCAR-5
SW-620 = tested on: SW-620
MDA-MB-435 = tested on: MDA-MB-435
SNB-19 = tested on: SNB-19
SF-539 = tested on: SF-539
U-251 = tested on: U-251
UACC-62 = tested on: UACC-62
NCI-H23 = tested on: NCI-H23
MCF7 = tested on: MCF7
HOP-92 = tested on: HOP-92
T47D = tested on: T47D

Row | SMILES | GI50 (NCI-H226) | GI50 (NCI-H522) | GI50 (SK-MEL-2) | GI50 (OVCAR-4) | GI50 (M14) | GI50 (OVCAR-3) | GI50 (BT-549) | GI50 (HCT-116) | GI50 (Hs-578T) | GI50 (OVCAR-5) | GI50 (SW-620) | GI50 (MDA-MB-435) | GI50 (SNB-19) | GI50 (SF-539) | GI50 (U-251) | GI50 (UACC-62) | GI50 (NCI-H23) | GI50 (MCF7) | GI50 (HOP-92) | GI50 (T47D)
1 | C=C1C[C@]23CC[C@@H]4C(CO)(CO)CC(=O)C[C@]4(C)[C@@H]2CC[C@H]1C3 | 93.8 µM (inactive) | > 100 µM (inactive) | > 100 µM (inactive) | > 100 µM (inactive) | > 100 µM (inactive) | > 100 µM (inactive) | > 100 µM (inactive) | > 100 µM (inactive) | > 100 µM (inactive) | > 100 µM (inactive) | > 100 µM (inactive) | > 100 µM (inactive) | 21.5 µM (inactive) | > 100 µM (inactive) | > 100 µM (inactive) | > 100 µM (inactive) | > 100 µM (inactive) | > 100 µM (inactive) | > 100 µM (inactive) | –
2 | C/C=C/c1c(O)c(=O)c2c(OC)cc(OC)c3c4c(OC)cc(OC)c5c(=O)c(O)c(/C=C/C)c(c1c23)c54 | < 0.01 µM (active) | 4.71 µM (inactive) | 10.2 µM (inactive) | 13 µM (inactive) | 9.42 µM (inactive) | 3.99 µM (inactive) | 3.1 µM (inactive) | 4.84 µM (inactive) | – | 20.5 µM (inactive) | 6.55 µM (inactive) | 5.82 µM (inactive) | 1.95 µM (inactive) | 3.61 µM (inactive) | 7.23 µM (inactive) | 6.3 µM (inactive) | 7.59 µM (inactive) | 14.5 µM (inactive) | 14.4 µM (inactive) | –
3 | CC(=O)OCC1OC(n2c(-c3ccccc3)c(/N=N/c3ccc(C)cc3)c(C)c(C#N)c2=S)C(OC(C)=O)C(OC(C)=O)C1OC(C)=O (stereo not given) | – | – | 20.7 µM (inactive) | 5.87 µM (inactive) | 3.16 µM (inactive) | 19.7 µM (inactive) | 6.44 µM (inactive) | 3.26 µM (inactive) | – | 23.7 µM (inactive) | 2.31 µM (inactive) | 9.06 µM (inactive) | 15.3 µM (inactive) | – | 14.9 µM (inactive) | – | 13.4 µM (inactive) | 6.47 µM (inactive) | 0.0257 µM (active) | 59.8 µM (inactive)
4 | COc1nc2c(c(=O)[nH]1)N=C(c1ccc(Cl)cc1)CC(c1ccccc1)N2 (stereo not given) | 29.4 µM (inactive) | 20.3 µM (inactive) | 21.3 µM (inactive) | 22.7 µM (inactive) | 17.3 µM (inactive) | 37.8 µM (inactive) | 31.2 µM (inactive) | 34.3 µM (inactive) | – | 49.9 µM (inactive) | 44.6 µM (inactive) | 34 µM (inactive) | 35.6 µM (inactive) | 21.6 µM (inactive) | 35.6 µM (inactive) | 20.2 µM (inactive) | 49.2 µM (inactive) | 39 µM (inactive) | 24.1 µM (inactive) | –
5 | Cc1cn([C@H]2[C@@H](CO)C[C@H]2O)c(=O)[nH]c1=O | > 100 µM (inactive) | > 100 µM (inactive) | > 100 µM (inactive) | > 100 µM (inactive) | – | > 100 µM (inactive) | > 100 µM (inactive) | > 100 µM (inactive) | > 100 µM (inactive) | > 100 µM (inactive) | > 100 µM (inactive) | > 100 µM (inactive) | – | > 100 µM (inactive) | > 100 µM (inactive) | – | > 100 µM (inactive) | > 100 µM (inactive) | > 100 µM (inactive) | –
6 | C/C(CC(O)(C(F)(F)F)C(F)(F)F)=N\NC(N)=O | > 10 µM (inactive) | > 10 µM (inactive) | > 10 µM (inactive) | > 10 µM (inactive) | > 10 µM (inactive) | > 10 µM (inactive) | – | > 10 µM (inactive) | > 10 µM (inactive) | – | > 10 µM (inactive) | > 10 µM (inactive) | > 10 µM (inactive) | > 10 µM (inactive) | > 10 µM (inactive) | > 10 µM (inactive) | > 10 µM (inactive) | > 10 µM (inactive) | > 10 µM (inactive) | > 10 µM (inactive)
7 | CC(C)NC(=O)N(Nc1ccccc1)C(C)(C)C | > 100 µM (inactive) | – | > 100 µM (inactive) | > 100 µM (inactive) | > 100 µM (inactive) | > 100 µM (inactive) | > 100 µM (inactive) | > 100 µM (inactive) | > 100 µM (inactive) | > 100 µM (inactive) | > 100 µM (inactive) | – | > 100 µM (inactive) | > 100 µM (inactive) | > 100 µM (inactive) | > 100 µM (inactive) | > 100 µM (inactive) | > 100 µM (inactive) | > 100 µM (inactive) | –
8 | CCCCC1CCCCCCc2[nH]c(/C=C3\N=C(c4ccc[nH]4)C=C3OC)cc21 (stereo not given) | 0.205 µM (active) | < 0.016 µM (active) | < 0.0124 µM (active) | < 0.0127 µM (active) | 0.0136 µM (active) | < 0.01 µM (active) | – | < 0.01 µM (active) | 0.0331 µM (active) | 0.116 µM (active) | < 0.01 µM (active) | < 0.01 µM (active) | 0.151 µM (active) | 0.0308 µM (active) | < 0.0122 µM (active) | < 0.0127 µM (active) | < 0.0221 µM (active) | < 0.0139 µM (active) | < 0.0119 µM (active) | < 0.01 µM (active)
